Laboratory results: US20250195536A1, “BICYCLOOCTANE KRAS INHIBITORS” (Incyte Corporation, priority 2023, published 2025)

Tests used:
KRAS G12D = KRAS G12D (Homo sapiens, UniProt P01116, G12D); test: GDP-GTP exchange assay (KRAS G12D); assay type: biochemical; settings: bodipy-GDP/GppNHp exchange with SOS1; 4 h pre-incubation, 2 h reaction;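 further: one dagger IC50 up to 100 nM and two daggers above 100 nM up to 1 μM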
Summary of the method: (§1)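 IC50 came from a four-parameter fit of fluorescence loss (485/520 nm) as SOS1 (150 nM) swapped bodipy-GDP for GppNHp (500 μM) on 2.5 nM KRAS, final concentrations. Compounds were pre-incubated 4 h at r.t. (pH 7.5 Hepes, 10 mM MgCl2); exchange ran 2 h (G12D) or 3 h (G12V).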

KRAS G12V = KRAS G12V (Homo sapiens, UniProt P01116, G12V); test: GDP-GTP exchange assay (KRAS G12V); assay type: biochemical; settings: bodipy-GDP/GppNHp exchange with SOS1; 3 h incubation after GppNHp-SOS1;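 further: one dagger IC50 up to 100 nM and two daggers above 100 nM up to 1 μM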
KRAS G12V, sequence (P01116 1-188 isoform P01116-2 G12V): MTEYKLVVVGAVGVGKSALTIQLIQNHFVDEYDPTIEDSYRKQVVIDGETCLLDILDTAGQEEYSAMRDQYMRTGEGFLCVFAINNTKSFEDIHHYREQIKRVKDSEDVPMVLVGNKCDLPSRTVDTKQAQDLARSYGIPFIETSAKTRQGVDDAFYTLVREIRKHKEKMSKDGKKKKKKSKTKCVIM
Summary of the method: as §1

[1] = Caco2 assay (permeability, Papp A-B); assay type: in vitro ADME; settings: human, Caco-2, absorptive direction (A-B), 50 μM test compound, 4% BSA in receiver
Summary of the method: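 Absorptive (A-B) Papp: 50 μM test compound in HBSS added to apical side of 22-25-day Caco-2 monolayers (TEER 300 Ω·cm^2), receiver buffer containing 4% BSA. After 120 min at 37 °C, 5% CO2, both sides analysed by LCMS; Papp calculated from flux rate normalized to area and donor amount.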

KRAS G12D, sequence (P01116 1-188 isoform P01116-2 G12D): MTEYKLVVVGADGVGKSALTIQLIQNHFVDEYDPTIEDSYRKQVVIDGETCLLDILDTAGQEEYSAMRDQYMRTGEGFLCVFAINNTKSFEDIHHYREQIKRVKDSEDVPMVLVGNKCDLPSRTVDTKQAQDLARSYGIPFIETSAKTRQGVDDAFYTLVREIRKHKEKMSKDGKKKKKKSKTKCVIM

| Structure (SMILES) | G12D_exchange (KRAS_G12D exchange assay IC50) (KRAS G12D) | G12V_exchange (KRAS_G12V exchange assay IC50) (KRAS G12V) | Papp A→B at 120 min, 50 μM [1] [×10⁻⁶ cm/s] |
| --- | --- | --- | --- |
| Cc1nc2c(F)c(-c3cccc(Cl)c3Cl)c(CCC#N)cc2c2c1cc([C@H]1[C@H]3C[C@H](CN(c4cn(C)nc4C(F)(F)F)C3)N1C(=O)C1CC1)n2[C@H]1[C@H]2CN[C@@H]1C2 (atropisomer, axis not shown; (Ra)) [Example 29, 3-((Ra)-1-((1R,4R,5S)-2-azabicyclo[2.1.1]hexan-5-yl)-2-((1S,5R,7R)-6-(cyclopropanecarbonyl)-3-(1-methyl-3-(trifluoromethyl)-1H-pyrazol-4-yl)-3,6-diazabicyclo[3.2.1]octan-7-yl)-7-(2,3-dichlorophenyl)-6-fluoro-4-methyl-1H-pyrrolo[3,2-c]quinolin-8-yl)propanenitrile] | † | † | ≤ 0.5 |
| Cc1ncnc(N2C[C@@H]3C[C@H](C2)N(C(=O)C2CC2)[C@H]3c2cc3c(C)nc4c(F)c(-c5cccc(Cl)c5Cl)c(CCC#N)cc4c3n2[C@H]2[C@H]3CN[C@@H]2C3)c1F (atropisomer, axis not shown; (Ra)) [Example 31, 3-((Ra)-1-((1R,4R,5S)-2-Azabicyclo[2.1.1]hexan-5-yl)-2-((1 S,5R,7R)-6-(cyclopropanecarbonyl)-3-(5-fluoro-6-methylpyrimidin-4-yl)-3,6-diazabicyclo[3.2.1]octan-7-yl)-7-(2,3-dichlorophenyl)-6-fluoro-4-methyl-1H-pyrrolo[3,2-c]quinolin-8-yl)propanenitrile] | † | † | ≤ 0.5 |
| Cc1nc2c(F)c(-c3cccc(Cl)c3Cl)c(CCC#N)cc2c2c1cc([C@H]1[C@H]3C[C@H](CN(c4ncc(C(C)C)s4)C3)N1C(=O)C1CC1)n2[C@H]1[C@H]2CN[C@@H]1C2 (atropisomer, axis not shown; (Ra)) [Example 32, 3-((Ra)-1-((1R,4R,5S)-2-Azabicyclo[2.1.1]hexan-5-yl)-2-((1 S,5R,7R)-6-(cyclopropanecarbonyl)-3-(5-isopropylthiazol-2-yl)-3,6-diazabicyclo[3.2.1]octan-7-yl)-7-(2,3-dichlorophenyl)-6-fluoro-4-methyl-1H-pyrrolo[3,2-c]quinolin-8-yl)propanenitrile] | † | † | > 1 |
| Cc1nc2c(F)c(-c3cccc(Cl)c3Cl)c(CCC#N)cc2c2c1cc([C@H]1[C@H]3C[C@H](CN(c4ncccn4)C3)N1C(=O)C1CC1)n2[C@H]1[C@H]2CN[C@@H]1C2 (atropisomer, axis not shown; (Ra)) [Example 33, 3-((Ra)-1-((1R,4R,5S)-2-azabicyclo[2.1.1]hexan-5-yl)-2-((1S,5R,7R)-6-(cyclopropanecarbonyl)-3-(pyrimidin-2-yl)-3,6-diazabicyclo[3.2.1]octan-7-yl)-7-(2,3-dichlorophenyl)-6-fluoro-4-methyl-1H-pyrrolo[3,2-c]quinolin-8-yl)propanenitrile] | † | † | ≤ 0.5 |
| Cc1nc2c(F)c(-c3cccc(Cl)c3Cl)c(CCC#N)cc2c2c1cc([C@H]1[C@H]3C[C@H](CN(c4ccc(C(F)(F)F)nn4)C3)N1C(=O)C1CC1)n2[C@H]1[C@H]2CN[C@@H]1C2 (atropisomer, axis not shown; (Ra)) [Example 34, 3-((Ra)-1-((1R,4R,5S)-2-azabicyclo[2.1.1]hexan-5-yl)-2-((1S,5R,7R)-6-(cyclopropanecarbonyl)-3-(6-(trifluoromethyl)pyridazin-3-yl)-3,6-diazabicyclo[3.2.1]octan-7-yl)-7-(2,3-dichlorophenyl)-6-fluoro-4-methyl-1H-pyrrolo[3,2-c]quinolin-8-yl)propanenitrile] | † | † | ≤ 0.5 |
| Cc1nc2c(F)c(-c3cccc(Cl)c3Cl)c(CCC#N)cc2c2c1cc([C@H]1[C@H]3C[C@H](CN(c4ccn(C)c(=O)c4)C3)N1C(=O)C1CC1)n2[C@H]1[C@H]2CN[C@@H]1C2 (atropisomer, axis not shown; (Ra)) [Example 35, 3-((Ra)-1-((1R,4R,5S)-2-azabicyclo[2.1.1]hexan-5-yl)-2-((1S,5R,7R)-6-(cyclopropanecarbonyl)-3-(1-methyl-2-oxo-1,2-dihydropyridin-4-yl)-3,6-diazabicyclo[3.2.1]octan-7-yl)-7-(2,3-dichlorophenyl)-6-fluoro-4-methyl-1H-pyrrolo[3,2-c]quinolin-8-yl)propanenitrile] | † | † | ≤ 0.5 |
| Cc1nc2c(F)c(-c3cccc(Cl)c3Cl)c(CCC#N)cc2c2c1cc([C@H]1[C@H]3C[C@H](CN(c4ccccn4)C3)N1C(=O)C1CC1)n2[C@H]1[C@H]2CN[C@@H]1C2 (atropisomer, axis not shown; (Ra)) [Example 36, 3-((Ra)-1-((1R,4R,5S)-2-azabicyclo[2.1.1]hexan-5-yl)-2-((1S,5R,7R)-6-(cyclopropanecarbonyl)-3-(pyridin-2-yl)-3,6-diazabicyclo[3.2.1]octan-7-yl)-7-(2,3-dichlorophenyl)-6-fluoro-4-methyl-1H-pyrrolo[3,2-c]quinolin-8-yl)propanenitrile] | † | † | ≤ 0.5 |
| Cc1nc2c(F)c(-c3cccc(Cl)c3Cl)c(CCC#N)cc2c2c1cc([C@H]1[C@H]3C[C@H](CN(c4ccnc(C(F)(F)F)c4)C3)N1C(=O)C1CC1)n2[C@H]1[C@H]2CN[C@@H]1C2 (atropisomer, axis not shown; (Ra)) [Example 38, 3-((Ra)-1-((1R,4R,5S)-2-azabicyclo[2.1.1]hexan-5-yl)-2-((1S,5R,7R)-6-(cyclopropanecarbonyl)-3-(2-(trifluoromethyl)pyridin-4-yl)-3,6-diazabicyclo[3.2.1]octan-7-yl)-7-(2,3-dichlorophenyl)-6-fluoro-4-methyl-1H-pyrrolo[3,2-c]quinolin-8-yl)propanenitrile] | † | † | ≤ 0.5 |
| Cc1nc2c(F)c(-c3cccc(Cl)c3Cl)c(CCC#N)cc2c2c1cc([C@H]1[C@H]3C[C@H](CN(c4cc(C(F)(F)F)ccn4)C3)N1C(=O)C1CC1)n2[C@H]1[C@H]2CN[C@@H]1C2 (atropisomer, axis not shown; (Ra)) [Example 39, 3-((Ra)-1-((1R,4R,5S)-2-azabicyclo[2.1.1]hexan-5-yl)-2-((1S,5R,7R)-6-(cyclopropanecarbonyl)-3-(4-(trifluoromethyl)pyridin-2-yl)-3,6-diazabicyclo[3.2.1]octan-7-yl)-7-(2,3-dichlorophenyl)-6-fluoro-4-methyl-1H-pyrrolo[3,2-c]quinolin-8-yl)propanenitrile] | † | † | ≤ 0.5 |
| Cc1nc2c(F)c(-c3cccc(Cl)c3Cl)c(CCC#N)cc2c2c1cc([C@H]1[C@H]3C[C@H](CN(c4cnccn4)C3)N1C(=O)C1CC1)n2[C@H]1[C@H]2CN[C@@H]1C2 (atropisomer, axis not shown; (Ra)) [Example 40, 3-((Ra)-1-((1R,4R,5S)-2-azabicyclo[2.1.1]hexan-5-yl)-2-((1S,5R,7R)-6-(cyclopropanecarbonyl)-3-(pyrazin-2-yl)-3,6-diazabicyclo[3.2.1]octan-7-yl)-7-(2,3-dichlorophenyl)-6-fluoro-4-methyl-1H-pyrrolo[3,2-c]quinolin-8-yl)propanenitrile] | † | † | ≤ 0.5 |
| Cc1nc2c(F)c(-c3cccc(Cl)c3Cl)c(CCC#N)cc2c2c1cc([C@H]1[C@H]3C[C@H](CN(c4ncc(C(F)(F)F)cn4)C3)N1C(=O)C1CC1)n2[C@H]1[C@H]2CN[C@@H]1C2 (atropisomer, axis not shown; (Ra)) [Example 41, 3-((Ra)-1-((1R,4R,5S)-2-azabicyclo[2.1.1]hexan-5-yl)-2-((1S,5R,7R)-6-(cyclopropanecarbonyl)-3-(5-(trifluoromethyl)pyrimidin-2-yl)-3,6-diazabicyclo[3.2.1]octan-7-yl)-7-(2,3-dichlorophenyl)-6-fluoro-4-methyl-1H-pyrrolo[3,2-c]quinolin-8-yl)propanenitrile] | † | † | ≤ 0.5 |
